Experimental data taken from ChEMBL document CHEMBL2029218, “Structure-based design of novel class II c-Met inhibitors: 2. SAR and kinase selectivity profiles of the pyrazolone series” (J Med Chem, 2012).
Values belong to the compound of their own block, whether it stands above or below them.

Tests used:
[1] = target: Insulin-like growth factor 1 receptor (Homo sapiens, UniProt P08069); assay: Inhibition of IGF1R by HTRF assay
[2] = target: Fibroblast growth factor receptor 1 (Homo sapiens, UniProt P11362); assay: Inhibition of FGFRK
[3] = target: Mast/stem cell growth factor receptor Kit (Homo sapiens, UniProt P10721); assay: Inhibition of c-KIT
[4] = target: Tyrosine-protein kinase JAK2 (Homo sapiens, UniProt O60674); assay: Inhibition of JAK2
[5] = target: Tyrosine-protein kinase JAK3 (Homo sapiens, UniProt P52333); assay: Inhibition of JAK3
[6] = target: Serine/threonine-protein kinase pim-2 (Homo sapiens, UniProt Q9P1W9); assay: Inhibition of PIM2
[7] = target: Ribosomal protein S6 kinase alpha-5 (Homo sapiens, UniProt O75582); assay: Inhibition of MSK1
[8] = target: Ribosomal protein S6 kinase beta-1 (Homo sapiens, UniProt P23443); assay: Inhibition of p70S6K
[9] = target: Mitogen-activated protein kinase 3 (Homo sapiens, UniProt P27361); assay: Inhibition of ERK1
[10] = target: Serine/threonine-protein kinase pim-1 (Homo sapiens, UniProt P11309); assay: Inhibition of PIM1
Aurora kinase A = Aurora kinase A (Homo sapiens, UniProt O14965); assay: Inhibition of aurora-1
[11] = target: RAC-alpha serine/threonine-protein kinase (Homo sapiens, UniProt P31749); assay: Inhibition of PKBalpha
Angiopoietin-1 receptor = Angiopoietin-1 receptor (Homo sapiens, UniProt Q02763); assay: Inhibition of TIE2
[12] = target: Tyrosine-protein kinase JAK1 (Homo sapiens, UniProt P23458); assay: Inhibition of JAK1
[13] = target: RAC-beta serine/threonine-protein kinase (Homo sapiens, UniProt P31751); assay: Inhibition of PKBbeta
[14] = target: Mitogen-activated protein kinase 14 (Homo sapiens, UniProt Q16539); assay: Inhibition of p38alpha
[15] = target: Vascular endothelial growth factor receptor 2 (Homo sapiens, UniProt P35968); assay: Inhibition of VEGFR2 by HTRF assay
[16] = target: Hepatocyte growth factor receptor (Homo sapiens, UniProt P08581)
Description: Inhibition of c-Met by HTRF assay

[17] = target: Mitogen-activated protein kinase 9 (Homo sapiens, UniProt P45984); assay: Inhibition of JNK2
[18] = target: cAMP-dependent protein kinase catalytic subunit alpha (Homo sapiens, UniProt P17612); assay: Inhibition of PKAalpha
[19] = target: Cyclin-dependent kinase 5/CDK5 activator 1 (Homo sapiens, UniProt Q00535)
[20] = target: Macrophage-stimulating protein receptor (Homo sapiens, UniProt Q04912); assay: Inhibition of RON by HTRF assay
[21] = target: Proto-oncogene tyrosine-protein kinase receptor Ret (Homo sapiens, UniProt P07949); assay: Inhibition of RET

Ki [1]: 575 nM
Compound: CC[C@H](O)Cn1c(C)c(C(=O)Nc2ccc(Oc3ccnc4cc(OC)ccc34)c(F)c2)c(=O)n1-c1ccccc1

IC50 [2]: 1000 nM | IC50 [3]: 100 nM | IC50 [4]: 1000 nM | IC50 [5]: 10000 nM | IC50 [6]: 25000 nM | IC50 [7]: 10000 nM | IC50 [8]: 1000 nM | IC50 [9]: 25000 nM | IC50 [10]: 25000 nM | IC50 (Aurora kinase A): 1000 nM | IC50 [11]: 10000 nM | IC50 (Angiopoietin-1 receptor): 100 nM | IC50 [12]: 10000 nM | IC50 [13]: 25000 nM | IC50 [14]: 1000 nM
Compound: COc1cc2nccc(Oc3ccc(NC(=O)c4c(C)n(C)n(-c5ccccc5)c4=O)cc3F)c2cc1OC

Ki [15]: 78.9 nM | Ki [1]: 149 nM
Compound: COc1cc2nccc(Oc3ccc(NC(=O)c4c(C)n(C)n(-c5ccccc5)c4=O)cc3F)c2cc1Br

Ki [1]: 146 nM
Compound: COc1cc2nccc(Oc3ccc(NC(=O)c4c(C)n(C)n(-c5ccccc5)c4=O)cc3F)c2cc1C

Ki [1]: 70.2 nM
Compound: CCc1cc2c(Oc3ccc(NC(=O)c4c(C)n(C)n(-c5ccccc5)c4=O)cc3F)ccnc2cc1OC

Ki [1]: 1570 nM
Compound: COc1cc2nccc(Oc3ccc(NC(=O)c4c(C)n(C)n(-c5ccccc5)c4=O)cn3)c2cc1OC

Ki [15]: 35.9 nM | Ki [1]: 26.5 nM
Compound: COc1cc2nccc(Oc3ccc(NC(=O)c4c(C)n(C)n(-c5ccccc5)c4=O)c(Cl)c3)c2cc1OC

Ki [15]: 702 nM | Ki [1]: 93.6 nM
Compound: COc1ccc2c(Oc3ccc(NC(=O)c4c(C)n(C)n(-c5ccccc5)c4=O)c(OC)c3)ccnc2c1

Ki [1]: 233 nM
Compound: COc1cc2nccc(Oc3ccc(NC(=O)c4c(C)n(C)n(-c5ccccc5)c4=O)nc3)c2cc1OC

Ki [1]: 618 nM
Compound: COc1ccc2c(Oc3ccc(NC(=O)c4c(C)n(C)n(-c5ccccc5)c4=O)nc3)ccnc2c1

Ki [15]: 1630 nM | Ki [16]: 16.7 nM | Ki [1]: 217 nM
Compound: COc1ccc2c(Oc3cnc(NC(=O)c4c(C)n(C)n(-c5ccccc5)c4=O)nc3)ccnc2c1

Ki [15]: 541 nM | Ki [1]: 928 nM
Compound: COc1ccc2c(Oc3ccc(NC(=O)c4c(CN)n(C)n(-c5ccccc5)c4=O)cc3F)ccnc2c1

Ki [1]: > 6600 nM
Compound: COc1ccc2c(Oc3ccc(NC(=O)c4c(CNC(=O)OC(C)(C)C)n(C)n(-c5ccccc5)c4=O)cc3F)ccnc2c1

Ki [1]: 744 nM
Compound: CCN(C)Cc1c(C(=O)Nc2ccc(Oc3ccnc4cc(OC)ccc34)c(F)c2)c(=O)n(-c2ccccc2)n1C

Ki [1]: 1800 nM
Compound: COc1ccc2c(Oc3ccc(NC(=O)c4c(CN5CCCC5)n(C)n(-c5ccccc5)c4=O)cc3F)ccnc2c1

Ki [1]: 887 nM
Compound: COc1ccc2c(Oc3ccc(NC(=O)c4c(CN5CCCC5)n(C)n(-c5ccccc5)c4=O)nc3)ccnc2c1

Ki [1]: 3100 nM
Compound: COc1ccc2c(Oc3ccc(NC(=O)c4c(C(C)(C)N)n(C)n(-c5ccccc5)c4=O)cc3F)ccnc2c1

Ki [15]: 2240 nM | Ki [1]: 680 nM
Compound: COc1ccc2c(Oc3ccc(NC(=O)c4c([C@@H]5CCCN5)n(C)n(-c5ccccc5)c4=O)cc3F)ccnc2c1

Ki [15]: > 6600 nM | Ki [1]: 948 nM
Compound: COc1ccc2c(Oc3ccc(NC(=O)c4c([C@@H]5CCCN5)n(C)n(-c5ccccc5)c4=O)nc3)ccnc2c1

Ki [1]: 144 nM
Compound: COc1ccc2c(Oc3ccc(NC(=O)c4c(C5CCOCC5)n(C)n(-c5ccccc5)c4=O)cc3F)ccnc2c1

Ki [15]: 2720 nM | Ki [1]: 42.7 nM
Compound: COc1ccc2c(Oc3ccc(NC(=O)c4c(C5CCOCC5)n(C)n(-c5ccccc5)c4=O)nc3)ccnc2c1

Ki [15]: > 6600 nM | Ki [1]: 35.9 nM
Compound: COc1ccc2c(Oc3ccc(NC(=O)c4c(-c5ccncc5)n(C)n(-c5ccccc5)c4=O)nc3)ccnc2c1

Ki [15]: 1380 nM | Ki [1]: 18.5 nM
Compound: COc1ccc2c(Oc3ccc(NC(=O)c4c(-c5ccccn5)n(C)n(-c5ccccc5)c4=O)nc3)ccnc2c1

Ki [15]: 2830 nM | Ki [1]: 27 nM
Compound: COc1ccc2c(Oc3ccc(NC(=O)c4c(-c5cccnc5)n(C)n(-c5ccccc5)c4=O)nc3)ccnc2c1

Ki [15]: 4730 nM | Ki [1]: 87.7 nM
Compound: COc1ccc2c(Oc3ccc(NC(=O)c4c(-c5cnccn5)n(C)n(-c5ccccc5)c4=O)nc3)ccnc2c1

Ki [15]: 501 nM | Ki [1]: 30.9 nM
Compound: COc1ccc2c(Oc3ccc(NC(=O)c4c(-c5cc(C)on5)n(C)n(-c5ccccc5)c4=O)nc3)ccnc2c1

Ki [15]: 588 nM | Ki [1]: 24.8 nM
Compound: COc1ccc2c(Oc3ccc(NC(=O)c4c(-c5csc(C)n5)n(C)n(-c5ccccc5)c4=O)nc3)ccnc2c1

Ki [1]: 557 nM
Compound: CCn1c(C)c(C(=O)Nc2ccc(Oc3ccnc4cc(OC)ccc34)c(F)c2)c(=O)n1-c1ccccc1

Ki [1]: 708 nM
Compound: CCn1c(C)c(C(=O)Nc2ccc(Oc3ccnc4cc(OC)ccc34)cn2)c(=O)n1-c1ccccc1

Ki [1]: 730 nM
Compound: CCCn1c(C)c(C(=O)Nc2ccc(Oc3ccnc4cc(OC)ccc34)cn2)c(=O)n1-c1ccccc1

Ki [1]: 249 nM
Compound: C=C(C)Cn1c(C)c(C(=O)Nc2ccc(Oc3ccnc4cc(OC)ccc34)c(F)c2)c(=O)n1-c1ccccc1

Ki [1]: 872 nM
Compound: COc1ccc2c(Oc3ccc(NC(=O)c4c(C)n(CCN)n(-c5ccccc5)c4=O)cc3F)ccnc2c1

Ki [1]: 864 nM
Compound: COc1ccc2c(Oc3ccc(NC(=O)c4c(C)n(CCO)n(-c5ccccc5)c4=O)cc3F)ccnc2c1

Ki [1]: 1100 nM
Compound: COc1ccc2c(Oc3ccc(NC(=O)c4c(C)n(CCO)n(-c5ccccc5)c4=O)nc3)ccnc2c1

Ki [1]: 2890 nM
Compound: COCCn1c(C)c(C(=O)Nc2ccc(Oc3ccnc4cc(OC)ccc34)cn2)c(=O)n1-c1ccccc1

Ki [1]: 1290 nM
Compound: COc1ccc2c(Oc3ccc(NC(=O)c4c(C)n(CC(C)O)n(-c5ccccc5)c4=O)nc3)ccnc2c1 (stereo unspecified)

Ki [1]: 637 nM
Compound: COc1ccc2c(Oc3ccc(NC(=O)c4c(C)n(CC(O)C(C)C)n(-c5ccccc5)c4=O)cc3F)ccnc2c1 (stereo unspecified)

Ki [1]: 104 nM
Compound: COc1ccc2c(Oc3ccc(NC(=O)c4c(C)n(CC(O)CN)n(-c5ccccc5)c4=O)cc3F)ccnc2c1 (stereo unspecified)

Ki [1]: 1660 nM
Compound: COc1ccc2c(Oc3ccc(NC(=O)c4c(C)n(CC5CNC(=O)O5)n(-c5ccccc5)c4=O)cc3F)ccnc2c1 (stereo unspecified)

Ki [1]: 887 nM
Compound: COc1ccc2c(Oc3ccc(NC(=O)c4c(C)n(CC(C)(C)O)n(-c5ccccc5)c4=O)cc3F)ccnc2c1

Ki [1]: 915 nM
Compound: COc1ccc2c(Oc3ccc(NC(=O)c4c(C)n(CC(C)C)n(-c5ccccc5)c4=O)cc3F)ccnc2c1

Ki [1]: 178 nM
Compound: COc1ccc2c(Oc3ccc(NC(=O)c4c(C)n(C)n(-c5ccccc5)c4=O)cc3F)ccnc2c1

Ki [1]: 419 nM
Compound: CCCn1c(C)c(C(=O)Nc2ccc(Oc3ccnc4cc(OC)ccc34)c(F)c2)c(=O)n1-c1ccccc1

Ki [1]: 695 nM
Compound: COc1ccc2c(Oc3ccc(NC(=O)c4c(C)n(C[C@H](C)O)n(-c5ccccc5)c4=O)cc3F)ccnc2c1

IC50 [2]: 25000 nM | IC50 [3]: 10000 nM | IC50 [4]: 25000 nM | IC50 [17]: 100000 nM | IC50 [6]: 25000 nM | IC50 [7]: 100000 nM | IC50 [16]: 10 nM | Ki [16]: 1 nM | IC50 [8]: 25000 nM | IC50 [9]: 100000 nM | IC50 [10]: 25000 nM | IC50 [18]: 100000 nM | IC50 [19]: 100000 nM | IC50 [11]: 10000 nM | IC50 [12]: 25000 nM | IC50 [20]: 10 nM | IC50 [13]: 25000 nM | IC50 [14]: 100000 nM | IC50 [21]: 25000 nM
Compound: COc1ccc2c(Oc3ccc(NC(=O)c4c(C)n(CC(C)(C)O)n(-c5ccccc5)c4=O)nc3)ccnc2c1

Ki [1]: 744 nM
Compound: COc1ccc2c(Oc3ccc(NC(=O)c4c(C)n(C[C@@H](C)O)n(-c5ccccc5)c4=O)cc3F)ccnc2c1

Ki [1]: 190 nM
Compound: COc1ccc2c(Oc3ccc(NC(=O)c4c(C5CCCO5)n(C)n(-c5ccccc5)c4=O)cc3F)ccnc2c1 (racemic)

Ki [1]: 250 nM
Compound: COc1ccc2c(Oc3ccc(NC(=O)c4c(C5CCOC5)n(C)n(-c5ccccc5)c4=O)cc3F)ccnc2c1 (racemic)

Ki [1]: 1330 nM
Compound: COc1ccc2c(Oc3ccc(NC(=O)c4c(C)n(CC(C)O)n(-c5ccccc5)c4=O)cc3F)ccnc2c1 (racemic)
